Laboratory results published in patent publication US9521845B2, “Beta-lactones as antibacterial agents” (LUDWIG-MAXIMILIANS-UNIVERSITÄT-MÜNCHEN, priority 2008, dated 2016).
“Also recorded” adds a separate entry of the source.

Legend:
[1] = tested on: β-Ketoacyl acyl carrier protein synthase II (KAS II); test: ABPP labeling of bacterial proteomes, KAS II; assay type: binding, L. welshimeri, B. subtilis; settings: 50 μM probe, FIGS. 9A and 9B
Excerpt: The library of beta-lactones to be tested comprised compounds with aliphatic or aromatic substitutions varying in length and branching. To evaluate the target selectivity, the beta-lactones were screened against several gram-positive and gram-negative bacterial proteomes including Pseudomonas putida, Listeria welshimeri, Bacillus licheniformis, Bacillus subtilis and Escherichia coli, which are phylogenetically related to pathogenic strains. In addition, mouse liver cytosol was included as an eukaryotic reference proteome. Initial labeling experiments were carried out by adding individual probes at 50 μM concentration to the proteome which is sufficient to achieve full saturation of most targets. […] As an example, labeling of L. welshimeri cytosolic and membrane proteomes as well as B. subtilis cytosolic proteome with a subset of the most complementary probes is shown in FIGS. 9A and 9B. […] Most of the targeted proteins were of low abundance as shown by the direct comparison of the relative intensities observed with Coomassie staining vs. fluorescence scanning (FIG. 11).
Proteome samples were adjusted to a final concentration of 1 mg protein/mL by dilution in PBS prior to probe labeling. […]

[2] = molecular target: T1, S-formylglutathione hydrolase (SFGH) (Escherichia coli, UniProt P51025); test: Substrate inhibition assay (p-nitrophenylacetate), IC50 determination; assay type: biochemical; settings: beta-lactone G2; substrate 2.4 mM, enzyme 30 nM; estimated
T1 construct: made in house; host or cells: E. coli BL21
T1 sequence (P51025 whole entry): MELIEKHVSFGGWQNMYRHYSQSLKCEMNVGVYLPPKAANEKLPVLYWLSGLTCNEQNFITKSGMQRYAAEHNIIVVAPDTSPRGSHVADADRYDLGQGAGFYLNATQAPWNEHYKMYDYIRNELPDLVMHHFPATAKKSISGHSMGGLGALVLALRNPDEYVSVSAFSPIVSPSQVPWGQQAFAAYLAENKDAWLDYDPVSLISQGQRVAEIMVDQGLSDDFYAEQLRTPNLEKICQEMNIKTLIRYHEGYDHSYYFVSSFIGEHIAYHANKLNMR
Method: SFGH mediated […] of the p-nitrophenylacetate leads to the release of p-nitrophenol which can be monitored at 400 nm. Various concentrations of beta-lactone G2 were added to a solution containing the substrate (2.4 mM) and enzyme (30 nM). Reactions were started by addition of the enzyme and subsequently monitored for 6 min. The mean average slopes of absorption (out of three independent experiments) versus beta-lactone concentration were plotted and the concentration of 50% inhibition (IC50) was estimated.

lipase (Lip) = test: ABPP probe dose down in proteome, lipase labeling; assay type: binding; settings: L. welshimeri proteome, concentration range 10 μM to 5 nM
Method: (§1) To estimate the strength of probe interactions with proteins in the proteome, we compared the reactivity profiles of selected beta-lactones across a broad concentration range from 10 μM to 5 nM.
(§2) Proteome samples were adjusted to a final concentration of 1 mg protein/mL by dilution in PBS prior to probe labeling. Experiments for visualization by 1D SDS-PAGE were carried out in 43 μL total volume and those for affinity enrichment in 1892 μL total volume, such that once CC reagents were added, the total reaction volume was 50 μL and 2 mL, respectively. Reactions were initiated by addition of the probe and allowed to incubate for 60 min at room temperature. For heat controls the proteome was denatured with 1 μL of 43% SDS at 95° C. for 6 min and cooled to room temperature before the probe was applied. Following incubation, reporter tagged-azide reagents (13 μM rhodamine-azide for analytical or 20 μM rhodamine-biotin-azide for preparative scale) were added followed by 1 mM TCEP and 100 μM ligand. Samples were gently vortexed and the cycloaddition initiated by the addition of 1 mM CuSO4. The reactions were incubated at room temperature for 1 h (Speers, J. Amer. Chem. Soc. 125 (2003), 4686).

[3] = tested on: lipase/acylhydrolase (LipAc); test: ABPP probe dose down in proteome, lipase/acylhydrolase labeling; assay type: binding; settings: L. welshimeri proteome
Method: as §1, §2

[4] = molecular target: T2, Aldehyde dehydrogenase B (ADB) (Escherichia coli, UniProt P37685); test: ABPP labeling of E. coli cytosol; assay type: binding; settings: 100 nM probe concentration, no other off targets
T2 construct: endogenous in cells; host or cells: Escherichia coli K12 lysate, cytosol fraction
T2 sequence (P37685 whole entry): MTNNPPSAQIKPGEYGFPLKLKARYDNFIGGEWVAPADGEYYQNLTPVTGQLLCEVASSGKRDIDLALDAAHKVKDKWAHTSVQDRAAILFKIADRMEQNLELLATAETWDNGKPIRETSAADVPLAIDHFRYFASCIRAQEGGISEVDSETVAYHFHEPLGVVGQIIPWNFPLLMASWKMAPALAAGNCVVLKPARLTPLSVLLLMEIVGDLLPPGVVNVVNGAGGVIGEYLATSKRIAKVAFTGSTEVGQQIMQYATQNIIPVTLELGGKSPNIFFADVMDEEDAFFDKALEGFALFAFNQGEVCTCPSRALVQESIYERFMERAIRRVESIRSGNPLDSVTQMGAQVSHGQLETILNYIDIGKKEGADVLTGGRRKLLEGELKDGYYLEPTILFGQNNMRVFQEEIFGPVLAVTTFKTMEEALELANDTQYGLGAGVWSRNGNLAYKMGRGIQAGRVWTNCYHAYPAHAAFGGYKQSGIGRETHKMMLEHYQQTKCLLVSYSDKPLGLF
Method: as §1, §2

[5] = tested on: Listeria monocytogenes EGDe in the mouse macrophage-like cell line J774; test: Infection of J774 cells and intracellular growth assay; assay type: cell-based; settings: 1 mM, 3 h and 5 h post infection, vs DMSO
Method: In a Nunclon™ 96-well plate with flat-bottom 1·10^5 J774 cells per well were seeded in 100 μL 90% DMEM medium with 10% FBS without antibiotics. After 24 h incubation the resulting monolayer was washed once with 100 μL PBS and 100 μL of L. monocytogenes EGDe suspension in 90% DMEM medium with 10% FBS without antibiotics was added either with 1 mM beta-lactone U1 or DMSO. L. monocytogenes was grown in an over night culture with beta-lactone/DMSO and resuspended to approximately 10^6 cells/mL resulting in a multiplicity of infection (MOI) of 0.5. Macrophages were infected for 15 min at 37° C. after 15 min bacterial adherence on ice, as described in Molecular Microbiol. 2000, 35(6): 1286-1294 (incorporated herein by reference). Thereafter, the infected monolayer were washed two times with 100 μL PBS each and fresh 90% DMEM medium with 10% FBS containing 10 μg/mL gentamicin and 1 mM beta-lactone U1 or DMSO was added. After 0, 3 and 5 h post infection, the monolayers were washed again with two times 100 μL PBS and eukaryotic cells lysed by the addition of two times 250 μL of 0.05% solution of Triton X-100 in sterile deionised water. Intracellular bacteria were quantified by colony counting of serial dilutions plated on Listeria-agar (Ottaviani & Agosti Agar, Heipha Diagnostika, Eppelheim, Germany).

[6] = tested on: LLO haemolytic activity of L. monocytogenes EGDe; test: LLO haemolytic activity testing of culture supernatants; assay type: cell-based, Listeria monocytogenes EGDe; settings: Listeria monocytogenes, Erythrocyte; cultures grown 16 h with lactone, sheep red blood cells; read-out: EC50 of reduction of LLO haemolytic activity
Method: Overnight cultures of L. monocytogenes EGDe were harvested by centrifugation and resuspended in an equal volume of fresh BHB medium. In 1.5 mL Eppendorf tubes, 400 μL of BHB medium were inoculated with 4 μL of the resuspended Listeria culture and 4 μL of a corresponding beta-lactone stock in DMSO. The final concentrations were 800 μM, 400 μM, 200 μM, 100 μM and DMSO as control. The amount of DMSO in all tests was 1% of the medium. After mixing, the test tubes were incubated under continuous shaking at 200 rpm at 37° C. for 16 h. Then, cells were centrifuged and the supernatants filtered sterile by passing them through a 0.2 μm pore size filter. Haemolytic activity of LLO in the culture supernatants was quantitatively investigated according to a method described in J. Food Safety 1998, 18: 197-203 (incorporated herein by reference) with some modifications. In Nunclon™ 96-well plates with round shaped wells 100 μL of serial dilutions of the supernatants in PBS were added per well and incubated with 100 μL of 3% SRBC (sheep red blood cells) resuspended in PBS for 15 min at 37° C. under gentle shaking. The 96-well plates were centrifuged at 600 rpm for 5 min and the minimum dilution at which intact blood cells began to form a pellet was recorded. Controls with no lactone were set 100%. Buffer only controls and pure BHB medium yielded no haemolysis.

HeLa cells = test: Cytotoxicity, WST-1 cell proliferation test; assay type: cell-based; settings: up to a concentration of 1 mM (300 mg/L), 24 h
Method: Cytotoxicity was determined in HeLa cells using the WST-1 cell proliferation test. Trypsinated cells were seeded at 100 μL aliquots with antibiotic free medium in Nunclon™ flat-bottom 96-well plates with 1·10^4 cells per well. After incubation of HeLa cells for 24 h, the medium was replaced by antibiotic free test medium containing 1 mM, 100 μM and 10 μM beta-lactone U1, DMSO as non-toxic control and 1% Triton X-100 as 100% lethal control. The DMSO content in all tests was kept at 1%. HeLa cells with test medium were incubated for 24 h, then 10 μL WST-1 reagent were added and after 30 min incubation absorption at 450 nm was read with 630 nm reference wavelength using a TECAN GENios Pro microplate reader.

Row | SMILES | KAS II labeling [1] | IC50 [2] [µM] | probe concentration down to which lipase is labeled (lipase (Lip)) [nM] | interaction with lipase/acylhydrolase (LipAc) [3] | ADB labeling preference [4] | lower growth in the eukaryotic cells [5] | EC50 [6] [µM] | cytotoxicity to HeLa cells (HeLa cells)
1 | C#CCCCC1OC(=O)C1CCCC (stereo not drawn) [G2, trans-3-butyl-4-(4-pentyn-1-yl)oxetan-2-one] | labeled | 5 | 20 | does not exhibit strong interaction | strong preference |  |  | 
2 | C=CCCCCCCCC1C(=O)OC1CCc1ccccc1 (centres unmarked) [U1] |  |  |  |  |  | approximately 76% | < 100 | non-cytotoxic; also recorded: Neither microscopic alterations of cell morphology nor significant inhibition of cell proliferation
